# Data: ChEMBL document CHEMBL1123630, “Stereospecificity in allergic contact dermatitis to simple substituted methylene lactone derivatives” (1987)
# Experiments:
# Format in all cases: functional
# Cavia porcellus [1] = species: Cavia porcellus; assay: Mean reaction by (+)4,5-Dimethyl-3-methylene-dihydro-furan-2-one sensitization in guinea pigs was determined by open epicutaneous test fo the compound
# Cavia porcellus [2] = species: Cavia porcellus; assay: Evaluated for the open epicutaneous test and no. of animals showing erythema covering the whole (1) by (+)4,5-Dimethyl-3-methylene-dihydro-furan-2-one sensitization in guinea pigs
# Cavia porcellus [3] = species: Cavia porcellus; assay: Evaluated for the open epicutaneous test and no. of animals showing erythema and swelling(2) by (-)4,5-Dimethyl-3-methylene-dihydro-furan-2-one sensitization in guinea pigs
# Cavia porcellus [4] = species: Cavia porcellus; assay: Number of positive animals showing sensitization to (-)4,5-Dimethyl-3-methylene-dihydro-furan-2-one in 8 guinea pigs was determined by open epicutaneous test for the compound
# Cavia porcellus [5] = species: Cavia porcellus; assay: Evaluated for the open epicutaneous test and no. of animals showing erythema covering part (0.5) by (+)4,5-Dimethyl-3-methylene-dihydro-furan-2-one sensitization in guinea pigs
# Cavia porcellus [6] = species: Cavia porcellus; assay: Evaluated for the open epicutaneous test and no. of animals showing erythema and swelling(2) by (+)4,5-Dimethyl-3-methylene-dihydro-furan-2-one sensitization in guinea pigs
# Cavia porcellus [7] = species: Cavia porcellus; assay: Evaluated for the open epicutaneous test and no. of animals showing no reaction (0) by (+)4,5-Dimethyl-3-methylene-dihydro-furan-2-one sensitization in guinea pigs
# Cavia porcellus [8] = species: Cavia porcellus; assay: Mean reaction by (-)4,5-Dimethyl-3-methylene-dihydro-furan-2-one sensitization in guinea pigs was determined by open epicutaneous test fo the compound
# Cavia porcellus [9] = species: Cavia porcellus; assay: Evaluated for the open epicutaneous test and no. of animals showing no reaction (0) by (-)4,5-Dimethyl-3-methylene-dihydro-furan-2-one sensitization in guinea pigs
# Cavia porcellus [10] = species: Cavia porcellus; assay: Number of positive animals showing sensitization to (+)4,5-Dimethyl-3-methylene-dihydro-furan-2-one in 8 guinea pigs was determined by open epicutaneous test for the compound
# Cavia porcellus [11] = species: Cavia porcellus; assay: Evaluated for the open epicutaneous test and no. of animals showing erythema covering part (0.5) by (-)4,5-Dimethyl-3-methylene-dihydro-furan-2-one sensitization in guinea pigs
# Cavia porcellus [12] = species: Cavia porcellus; assay: Evaluated for the open epicutaneous test and no. of animals showing erythema covering the whole (1) by (-)4,5-Dimethyl-3-methylene-dihydro-furan-2-one sensitization in guinea pigs
# Cavia porcellus [13] = species: Cavia porcellus; assay: Number of positive animals showing sensitization to (+)4-Methyl-3-methylene-dihydro-furan-2-one in 3 guinea pigs was determined by open epicutaneous test for the compound
# Cavia porcellus [14] = species: Cavia porcellus; assay: Evaluated for the open epicutaneous test and no. of animals showing erythema covering part (0.5) by (+)4-Methyl-3-methylene-dihydro-furan-2-one sensitization in guinea pigs
# Cavia porcellus [15] = species: Cavia porcellus; assay: Mean reaction by (-)4-Methyl-3-methylene-dihydro-furan-2-one sensitization in guinea pigs was determined by open epicutaneous test fo the compound
# Cavia porcellus [16] = species: Cavia porcellus; assay: Number of positive animals showing sensitization to (-)4-Methyl-3-methylene-dihydro-furan-2-one in 7 guinea pigs was determined by open epicutaneous test for the compound
# Cavia porcellus [17] = species: Cavia porcellus; assay: Evaluated for the open epicutaneous test and no. of animals showing erythema and swelling(2) by (-)4-Methyl-3-methylene-dihydro-furan-2-one sensitization in guinea pigs
# Cavia porcellus [18] = species: Cavia porcellus; assay: Evaluated for the open epicutaneous test and no. of animals showing erythema covering the whole (1) by (-)4-Methyl-3-methylene-dihydro-furan-2-one sensitization in guinea pigs
# Cavia porcellus [19] = species: Cavia porcellus; assay: Evaluated for the open epicutaneous test and no. of animals showing erythema covering the whole (1) by (+)4-Methyl-3-methylene-dihydro-furan-2-one sensitization in guinea pigs
# Cavia porcellus [20] = species: Cavia porcellus; assay: Evaluated for the open epicutaneous test and no. of animals showing erythema and swelling(2) by (+)4-Methyl-3-methylene-dihydro-furan-2-one sensitization in guinea pigs
# Cavia porcellus [21] = species: Cavia porcellus; assay: Evaluated for the open epicutaneous test and no. of animals showing no reaction (0) by (+)4-Methyl-3-methylene-dihydro-furan-2-one sensitization in guinea pigs
# Cavia porcellus [22] = species: Cavia porcellus; assay: Mean reaction by (+)4-Methyl-3-methylene-dihydro-furan-2-one sensitization in guinea pigs was determined by open epicutaneous test fo the compound
# Cavia porcellus [23] = species: Cavia porcellus; assay: Evaluated for the open epicutaneous test and no. of animals showing no reaction (0) by (-)4-Methyl-3-methylene-dihydro-furan-2-one sensitization in guinea pigs
# Cavia porcellus [24] = species: Cavia porcellus; assay: Evaluated for the open epicutaneous test and no. of animals showing erythema covering part (0.5) by (-)4-Methyl-3-methylene-dihydro-furan-2-one sensitization in guinea pigs
# Cavia porcellus [25] = species: Cavia porcellus; assay: Number of positive animals showing sensitization to (+)4-Methyl-3-methylene-dihydro-furan-2-one in 6 guinea pigs was determined by open epicutaneous test for the compound
# Cavia porcellus [26] = species: Cavia porcellus; assay: Number of positive animals showing sensitization to (-)4-Methyl-3-methylene-dihydro-furan-2-one in 6 guinea pigs was determined by open epicutaneous test for the compound
Compound,Mean reaction (Cavia porcellus [1]),No. of animals (Cavia porcellus [2]),No. of animals (Cavia porcellus [3]),No. of positive animals (Cavia porcellus [4]),No. of animals (Cavia porcellus [5]),No. of animals (Cavia porcellus [6]),No. of animals (Cavia porcellus [7]),Mean reaction (Cavia porcellus [8]),No. of animals (Cavia porcellus [9]),No. of positive animals (Cavia porcellus [10]),No. of animals (Cavia porcellus [11]),No. of animals (Cavia porcellus [12]),No. of animals (Cavia porcellus [14]),Mean reaction (Cavia porcellus [15]),No. of animals (Cavia porcellus [17]),No. of animals (Cavia porcellus [18]),No. of animals (Cavia porcellus [19]),No. of animals (Cavia porcellus [20]),No. of animals (Cavia porcellus [21]),No. of animals (Cavia porcellus [24]),also measured
C=C1C(=O)O[C@@H](C)[C@@H]1C,0,0,0,8,0,0,8,0.8,0,0,3,5,,,,,,,,,
C=C1C(=O)O[C@H](C)[C@H]1C,0.4,1,0,5,5,0,2,0.5,3,6,2,3,,,,,,,,,
C=C1C(=O)OC[C@@H]1C,,,,,,,,,,,,,3,1.7,5,2,0,0,4,0,No. of positive animals (Cavia porcellus [13]): 3; No. of positive animals (Cavia porcellus [16]): 7; Mean reaction (Cavia porcellus [22]): 0.2; No. of animals (Cavia porcellus [23]): 0
C=C1C(=O)OC[C@H]1C,0.9,,,,,,,,6,,,,1,0,0,0,5,0,0,0,No. of positive animals (Cavia porcellus [25]): 6; No. of positive animals (Cavia porcellus [26]): 0
